“Also recorded” adds a separate entry of the source.
Key:
SIVmac251 = assay: Plasma viral load (real time RT-PCR of SIV RNA) in SIV-infected rhesus macaques; type: in vivo, rhesus macaques (Macaca mulatta)
From the text: Fifteen (15) colony bred rhesus macaques (Macaca mulatta) from the California Regional Primate Research Center, Davis, were used in this study. Animals were housed in accordance with The American Association for Accredition of Laboratory Animal Care guidelines. All animals were seronegative for simian retrovirus (SRV-1) and simian T cell leukemia virus type-1 (STLV-1). Rhesus macaques were intravenously (I.V.) infected with 100 animal infectious doses of uncloned pathogenic SIVmac251. This viral inoculum has been previously shown to cause persistent viremia and infection Of multiple tissues in vivo, leading to fatal AIDS-like disease (Mandell et al 1995). The animals were divided into the following groups • 1. Untreated Controls, necropsy at week 10 (n=3) • 2. Untreated Controls, necropsy at week 26 (n=3) • 3 PMPA treatment, necropsy at week 10 (n=3) • 4. PMPA+RDP58 treatment, necropsy at week 10 (n=3) • 5. PMPA treatment, necropsy at week 26 (n=3) • 6. […]
Primers and probes specific to the SIV RNA sequence were designed and used in the real time PCR reaction. […] The progress of the reaction is monitored through the fluorescence released by […] that is proportional to the product being formed. Thus the fluorescence intensity is directly related to the amount of input target RNA. The data was analyzed with Sequence Detector Software (SDS). […]

[1] = tested on: T cells in gut associated lymphoid tissue (GALT) and blood; assay: Flow cytometry of T cells from jejunal biopsies (GALT) and peripheral blood of SIV-infected rhesus macaques; type: in vivo, rhesus macaques (Macaca mulatta)
From the text: Fifteen (15) colony bred rhesus macaques (Macaca mulatta) from the California Regional Primate Research Center, Davis, were used in this study. Animals were housed in accordance with The American Association for Accredition of Laboratory Animal Care guidelines. All animals were seronegative for simian retrovirus (SRV-1) and simian T cell leukemia virus type-1 (STLV-1). Rhesus macaques were intravenously (I.V.) infected with 100 animal infectious doses of uncloned pathogenic SIVmac251. This viral inoculum has been previously shown to cause persistent viremia and infection Of multiple tissues in vivo, leading to fatal AIDS-like disease (Mandell et al 1995). The animals were divided into the following groups • 1. Untreated Controls, necropsy at week 10 (n=3) • 2. Untreated Controls, necropsy at week 26 (n=3) • 3 PMPA treatment, necropsy at week 10 (n=3) • 4. PMPA+RDP58 treatment, necropsy at week 10 (n=3) • 5. PMPA treatment, necropsy at week 26 (n=3) • 6. PMPA+RDP58 treatment, necropsy at week 26 (n=3)
PMPA treatment was initiated at 6 weeks post-infection and was administered at 30 mg/kg, I.V. RDP58 was administered orally, dissolved in drinking water, at 2 mg/kg, 3×/week.
Jejunal biopsies and peripheral blood samples were obtained from all animals prior to infection and at 2 weeks, 6 weeks, 10 weeks, 16 weeks and 26 weeks post-infection and at necropsy. Jejunal biopsies was obtained using a pediatric gastroscope.
Jejunal pinch biopsy samples were incubated RPMI 1640 (Gibco) and collagenase (Sigma) at 37° C. and rapidly shaken for 45 minutes then subjected to Percoll (Sigma) density gradient centrifugation to enrich for T cells and eliminate tissue debris. Cells were then washed with PBS (Gibco) and allowed to equilibrate over night at 37° C. and 5% CO2 in complete RPMI 1640 (containing 10% fetal calf sera, penicillin and streptomyicin). Cells were stained for three-color flow cytometric analysis with CD3FITC, CD4PE, CD8PE, CD45RA (BD Pharmingen), CD8TC, CD69TC, CD28TC, CD25PE (Caltag). All cells were fixed in 1% paraformaldehyde in PBS and read on a Bectin Dickenson FacScan within 3 hours of staining. Flow data was analyzed using Bectin Dickenson CellQuest softwear.

Row | Compound | plasma viral load (viral RNA copies/ml plasma) (SIVmac251; therapy started at week 6 post infection, PMPA 30 mg/kg I.V.) | CD3 gated CD4+ T cells after SIV-induced depletion ([1]; GALT and blood, treatment from week 6) | % CD3 gated CD8+ cells ([1]; by week 10) | CD4+CD8+ double positive T cell counts in GALT ([1]; week 12, GALT) | effect of RDP58 on suppression of viral loads by antiretroviral therapy (SIVmac251; RDP58 2 mg/kg orally 3x/week, alone or added to PMPA, 2 mg/kg) | stabilizing CD4+ T-cell population in GALT ([1]; GALT)
1 | C[C@H](Cn1cnc2c(N)ncnc21)OCP(=O)(O)O [PMPA, 9-R-(2-phosphonomethoxypropyl)adenine] | gradual decrease in viral load | reversal | gradual decrease | modest changes |  | 
2 | Arg-nL-nL-nL-Arg-nL-nL-nL-Gly-Tyr [RDP58] |  |  |  |  | no adverse effect; also recorded: did not interfere with or change the effect of antiretroviral therapy | beneficial effects
